Reference: patent US20260355170A1, “Treatment of Endometrial Cancer with MDM2 Inhibitors” (Kartos Therapeutics, Inc., priority 2023, published 2026)

Key:
Type in all cases: cell-based
[1] = test system: p53 wild-type (TP53 WT) endometrial cancer cell line; assay: Inhibition of endometrial cancer cell growth (overall result, FIG. 1); conditions: at clinically relevant doses; results shown in FIG. 1
Experimental: (§1) The effect of MDM2 inhibitor compound of Formula (I) on growth of a p53 wild-type (TP53 WT) endometrial cancer cell line was assessed in HEC-151 cells, HEC-265 cells, and HEC-108 cells as described below.
(§2) Test and Control Article Preparation: A stock solution for Formula (I) was created by dissolving the compound in 100% DMSO to a concentration of 10 mM which was stored at −20 °C. Working solutions ranging from 0.04 μM to 10 μM to generate a 10-point dilution series were prepared by diluting the stock solution in culture media specific to each cell line (cell line assay media). Final concentrations of DMSO were kept constant at 0.1% to maintain cell viability. […]
(§3) Treatment of Cells for Proliferation Assay: Cells were counted (Countess III automated cell counter, Thermo Fisher Scientific) using a cell viability imaging kit (Thermo Fisher Scientific; cat #R37609). […]
(§4) On Day 0 prior treatment, and after the treatment period, the number of viable cells were measured using the CellTiter-Glo® Luminescent Cell Viability Assay (Promega) according to manufacturer instructions. The luminescence for each treatment condition was normalized to the DMSO control as a percent of control. Dose response curves were generated and EC50s and EC90s were determined based on percent of DMSO control. […]

HEC-265 cells = assay: CellTiter-Glo viability/proliferation assay, growth of HEC-265 TP53 WT endometrial cancer cells; conditions: 144 h, 6-day incubation
Experimental: as §1, §2, §3, §4

HEC-108 cells = assay: CellTiter-Glo viability/proliferation assay, growth of HEC-108 TP53 WT endometrial cancer cells
Experimental: as §1, §2, §3, §4

HEC-151 cells = assay: CellTiter-Glo viability/proliferation assay, growth of HEC-151 TP53 WT endometrial cancer cells; conditions: 144 h, 6-day incubation
Experimental: as §1, §2, §3, §4

[2] = read-out: Near complete growth inhibition (EC90)

For `CC(C)[C@@H](CS(=O)(=O)C(C)C)N1C(=O)[C@@](C)(CC(=O)O)C[C@H](c2cccc(Cl)c2)[C@H]1c1ccc(Cl)cc1` [Formula (I), 2-((3R,5R,6S)-5-(3-chlorophenyl)-6-(4-chlorophenyl)-1-((S)-1-(isopropylsulfonyl)-3-methylbutan-2-yl)-3-methyl-2-oxopiperidin-3-yl) acetic Acid], the growth inhibition [1] was “growth inhibition by the compound of Formula (I) at clinically relevant doses”, the EC50 (HEC-265 cells; percent of DMSO control) was 600 nM and the EC90 (HEC-265 cells; [2]) was 700 nM. For the same compound, the “growth inhibition (200-point scale: 0 uninhibited growth, 100 cell stasis, 200 complete cell killing)” value (HEC-108 cells; at 10 μM, 6-day exposure) was “only nearly reached cell stasis”, the cell killing sensitivity (HEC-108 cells; compared with HEC-151 and HEC-265, 6-day exposure) was “less sensitive” and the EC50 (HEC-151 cells; percent of DMSO control) was 400 nM. The EC90 (HEC-151 cells; [2]) was 700 nM.
